Test: Effect of alkalinizing agents on the pH of a solution of 0.1 N HCl with a starting pH of 2.0
Format: physicochemical
Settings: for pH of the solution: all tested amounts, over the times tested
Method: Various alkalinizing agents were added to a solution of 0.1 N HCl with a starting pH of 2.0 and the pH of the solution was tested at different time points.

Work on `O=C([O-])O.[Na+]` [sodium bicarbonate] yielded a pH (20 mg per 320 mL, 0 min) of 2.02, a pH (20 mg per 320 mL, 1 min) of 2.04 and a pH (20 mg per 320 mL, 2 min) of 2.05. The pH (20 mg per 320 mL, 3 min) was 2.05, the pH (20 mg per 320 mL, 4 min) was 2.05 and the pH (20 mg per 320 mL, 5 min) was 2.05. It also gave a pH (20 mg per 320 mL, 6 min) of 2.05, a pH (20 mg per 320 mL, 7 min) of 2.05 and a pH (20 mg per 320 mL, 8 min) of 2.05. For the same compound, the pH (20 mg per 320 mL, 9 min) was 2.05, the pH (20 mg per 320 mL, 10 min) was 2.05 and the pH (20 mg per 320 mL, 20 min) was 2.05. The pH (20 mg per 320 mL, 30 min) was 2.05, the pH (20 mg per 320 mL, 40 min) was 2.05 and the pH (20 mg per 320 mL, 50 min) was 2.05. The pH (20 mg per 320 mL, 60 min) was 2.05, the “effect on pH of the solution” value (20 mg/320 ml and 40 mg/320 ml, 60 minute timecourse) was “neither amount tested was sufficient to raise the pH to neutral or higher” and the pH (40 mg per 320 mL, 0 min) was 2.05. For the same compound, the pH (40 mg per 320 mL, 1 min) was 2.08, the pH (40 mg per 320 mL, 2 min) was 2.08 and the pH (40 mg per 320 mL, 3 min) was 2.08. It also gave a pH (40 mg per 320 mL, 4 min) of 2.08, a pH (40 mg per 320 mL, 5 min) of 2.09 and a pH (40 mg per 320 mL, 6 min) of 2.09. The pH (40 mg per 320 mL, 7 min) was 2.09, the pH (40 mg per 320 mL, 8 min) was 2.09 and the pH (40 mg per 320 mL, 9 min) was 2.09. It also gave a pH (40 mg per 320 mL, 10 min) of 2.09, a pH (40 mg per 320 mL, 20 min) of 2.09 and a pH (40 mg per 320 mL, 30 min) of 2.09. It also gave a pH (40 mg per 320 mL, 40 min) of 2.09, a pH (40 mg per 320 mL, 50 min) of 2.09 and a pH (40 mg per 320 mL, 60 min) of 2.09. For the same compound, the pH (50 mg/200 ml, 0 min) was 1.71, the pH (50 mg/200 ml, 10 min) was 1.72 and the pH (50 mg/200 ml, 20 min) was 1.72. It also gave a pH (50 mg/200 ml, 30 min) of 1.72, a pH (50 mg/200 ml, 40 min) of 1.72 and a pH (100 mg/200 ml, 0 min) of 1.71. It also gave a pH (100 mg/200 ml, 10 min) of 1.76, a pH (100 mg/200 ml, 20 min) of 1.75 and a pH (100 mg/200 ml, 30 min) of 1.75. The pH (100 mg/200 ml, 40 min) was 1.75, the “effect on pH of the solution” value (50 and 100 mg/200 ml, 40 minute timecourse) was “neither tested amount was sufficient to raise the pH” and the “pH of the solution” value was “above 2.0”.

Work on `O=C([O-])CC(O)(CC(=O)[O-])C(=O)[O-].[Na+].[Na+].[Na+]` [Sodium Citrate, sodium citrate] yielded a pH (930 mg in 200 ml, 10 min) of 5.53, a pH (930 mg in 200 ml, 20 min) of 5.53 and a pH (930 mg in 200 ml, 30 min) of 5.53. For the same compound, the pH (930 mg in 200 ml, 40 min) was 5.53, the pH (930 mg in 200 ml, 50 min) was 5.53 and the pH (930 mg in 200 ml, 60 min) was 5.53.

In the case of `O=C([O-])[O-].[Na+].[Na+]` [sodium carbonate], the pH (11.13 mg/200 ml, 0 min) is reported as 2.66, the pH (11.13 mg/200 ml, 1 min) is reported as 2.80 and the pH (11.13 mg/200 ml, 2 min) is reported as 2.80. It also gave a pH (11.13 mg/200 ml, 3 min) of 2.80, a pH (11.13 mg/200 ml, 4 min) of 2.80 and a pH (11.13 mg/200 ml, 5 min) of 2.80. For the same compound, the pH (11.13 mg/200 ml, 10 min) was 2.80, the pH (11.13 mg/200 ml, 15 min) was 2.80 and the pH (11.13 mg/200 ml, 20 min) was 2.80. It also gave a pH (11.13 mg/200 ml, 60 min) of 2.80, a pH (30.11 mg/200 ml, 0 min) of 2.57 and a pH (30.11 mg/200 ml, 1 min) of 3.21. For the same compound, the pH (30.11 mg/200 ml, 2 min) was 3.24, the pH (30.11 mg/200 ml, 3 min) was 3.25 and the pH (30.11 mg/200 ml, 4 min) was 3.25. For the same compound, the pH (30.11 mg/200 ml, 5 min) was 3.26, the pH (30.11 mg/200 ml, 10 min) was 3.27 and the pH (30.11 mg/200 ml, 15 min) was 3.27. For the same compound, the pH (30.11 mg/200 ml, 20 min) was 3.27, the pH (30.11 mg/200 ml, 60 min) was 3.27 and the “effect on pH of the solution” value (81.68 mg in 200 ml) was “raise the pH of the 200 ml solution to above neutral”. It also gave a pH (81.68 mg/200 ml, 0 min) of 2.73, a pH (81.68 mg/200 ml, 1 min) of 9.02 and a pH (81.68 mg/200 ml, 2 min) of 9. For the same compound, the pH (81.68 mg/200 ml, 3 min) was 8.97, the pH (81.68 mg/200 ml, 4 min) was 8.95 and the pH (81.68 mg/200 ml, 5 min) was 8.93. For the same compound, the pH (81.68 mg/200 ml, 10 min) was 8.83, the pH (81.68 mg/200 ml, 15 min) was 8.81 and the pH (81.68 mg/200 ml, 20 min) was 8.5. For the same compound, the pH (81.68 mg/200 ml, 60 min) was 8.25 and the “pH of the solution” value was greater than 2.0.

From patent US9700516B2, “Compositions and methods for reducing overdose” (priority 2014, dated 2017)
